# Experimental data as given in ChEMBL document CHEMBL1201862, “PubChem BioAssay data set” (2004).
# Where a name gives a salt, the structure may show the parent alone. Active and inactive are the calls of the source.
# Legend:
# [1] = off-target signal loss in HeLa-CEM21 co-culture – HeLa F-luc CTL cells, cherry-picked, counter-screen for HIV-1 Env fusion inhibitor project, dose response (AID 652040); assay type: functional, cell-based;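 note: potency for signal decrease marking cytotoxic or nonspecific inhibition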
# [2] = viability loss in CEM21 cells – cell-based, CellTiter-Glo luminescence, cherry-picked, cytotoxicity control for viral fusion inhibitor project, dose response (AID 652042); assay type: functional;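 note: potency for signal decrease meaning cytotoxicity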
# [3] = blockers of HIV-1 envelope-mediated cell-cell fusion – cherry-pick, dose response (AID 652057); assay type: functional, cell-based
# [4] = Dd2 parasite growth inhibition in erythrocytes – SYBR Green, dry powder samples, set 9, dose response (AID 1159568); assay type: functional, cell-based
# [5] = IC50 of insulin release inhibition, rat insulinoma INS-1E line, 5 mM glucose, cell-based (AID 1117331); assay type: functional
# [6] = biological target: Peroxisome proliferator-activated receptor gamma/Nuclear receptor coactivator 3 (Homo sapiens, UniProt P37231); assay type: functional;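 note: agonist potency for raising coactivator recruitment to the receptor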
# [7] = biological target: Peroxisome proliferator-activated receptor gamma/Nuclear receptor coactivator 2 (Homo sapiens, UniProt P37231); assay type: functional;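 note: agonist potency for raising coactivator recruitment to the receptor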
# Chain of Peroxisome proliferator-activated receptor gamma/Nuclear receptor coactivator 2 (P37231 whole entry): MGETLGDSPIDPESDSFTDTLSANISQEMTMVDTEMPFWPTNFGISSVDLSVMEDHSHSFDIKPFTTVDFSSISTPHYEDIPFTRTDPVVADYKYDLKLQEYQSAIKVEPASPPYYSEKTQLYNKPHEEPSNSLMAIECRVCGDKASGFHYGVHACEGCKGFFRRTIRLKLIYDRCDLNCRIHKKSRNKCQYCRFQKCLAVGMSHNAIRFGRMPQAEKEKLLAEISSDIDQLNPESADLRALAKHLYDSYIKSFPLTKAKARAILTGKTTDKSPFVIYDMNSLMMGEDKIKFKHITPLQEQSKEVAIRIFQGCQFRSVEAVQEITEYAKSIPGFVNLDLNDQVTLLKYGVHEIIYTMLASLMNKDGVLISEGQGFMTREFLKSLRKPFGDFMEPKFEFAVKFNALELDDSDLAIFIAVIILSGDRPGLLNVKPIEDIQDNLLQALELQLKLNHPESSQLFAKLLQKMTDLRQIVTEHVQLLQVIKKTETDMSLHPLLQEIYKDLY
# Chain of Peroxisome proliferator-activated receptor gamma/Nuclear receptor coactivator 2 (Q15596 whole entry, further chain): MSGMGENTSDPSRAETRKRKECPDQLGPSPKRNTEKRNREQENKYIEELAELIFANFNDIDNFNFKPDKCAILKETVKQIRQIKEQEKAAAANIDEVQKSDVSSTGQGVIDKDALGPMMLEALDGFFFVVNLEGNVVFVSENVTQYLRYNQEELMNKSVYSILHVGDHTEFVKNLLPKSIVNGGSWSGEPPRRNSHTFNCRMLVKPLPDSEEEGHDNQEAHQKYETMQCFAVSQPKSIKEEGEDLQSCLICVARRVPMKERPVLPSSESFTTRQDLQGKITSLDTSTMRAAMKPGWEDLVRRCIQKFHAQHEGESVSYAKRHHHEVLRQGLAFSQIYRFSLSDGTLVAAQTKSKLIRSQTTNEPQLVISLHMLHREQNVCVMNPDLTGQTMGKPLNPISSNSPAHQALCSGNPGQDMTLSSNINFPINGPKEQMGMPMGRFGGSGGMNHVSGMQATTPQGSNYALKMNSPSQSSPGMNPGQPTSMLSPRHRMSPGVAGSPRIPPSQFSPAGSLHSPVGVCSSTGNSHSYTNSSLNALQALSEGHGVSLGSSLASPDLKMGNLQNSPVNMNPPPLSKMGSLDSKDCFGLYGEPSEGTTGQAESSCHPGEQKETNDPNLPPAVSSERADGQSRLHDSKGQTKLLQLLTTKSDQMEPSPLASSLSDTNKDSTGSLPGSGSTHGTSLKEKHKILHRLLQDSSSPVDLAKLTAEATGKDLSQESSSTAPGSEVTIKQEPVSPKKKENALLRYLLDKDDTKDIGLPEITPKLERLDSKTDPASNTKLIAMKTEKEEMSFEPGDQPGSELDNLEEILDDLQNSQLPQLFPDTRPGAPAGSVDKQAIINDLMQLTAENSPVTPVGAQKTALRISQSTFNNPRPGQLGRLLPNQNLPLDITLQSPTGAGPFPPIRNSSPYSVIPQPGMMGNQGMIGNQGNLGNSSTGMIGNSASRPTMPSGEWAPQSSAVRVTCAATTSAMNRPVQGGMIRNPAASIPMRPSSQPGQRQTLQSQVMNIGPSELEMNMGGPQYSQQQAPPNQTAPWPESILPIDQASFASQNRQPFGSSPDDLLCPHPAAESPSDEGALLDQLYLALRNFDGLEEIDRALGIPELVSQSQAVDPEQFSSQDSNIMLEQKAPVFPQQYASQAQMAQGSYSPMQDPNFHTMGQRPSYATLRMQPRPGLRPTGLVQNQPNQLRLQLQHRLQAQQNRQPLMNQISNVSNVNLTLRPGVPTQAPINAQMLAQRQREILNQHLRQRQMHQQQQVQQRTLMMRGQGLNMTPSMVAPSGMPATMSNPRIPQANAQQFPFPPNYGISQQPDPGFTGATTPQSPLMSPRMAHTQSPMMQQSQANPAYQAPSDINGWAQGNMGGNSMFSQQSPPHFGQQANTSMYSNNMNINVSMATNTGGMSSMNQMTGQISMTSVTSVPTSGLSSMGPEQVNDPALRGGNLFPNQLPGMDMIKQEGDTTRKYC
# [8] = biological target: Peroxisome proliferator-activated receptor gamma/Nuclear receptor coactivator 1 (Homo sapiens, UniProt P37231); assay type: functional;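 note: agonist potency as compounds enhance coactivator SRC-1 recruitment to PPARgamma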
# Chain of Peroxisome proliferator-activated receptor gamma/Nuclear receptor coactivator 1 (P37231 whole entry): as the sequence (P37231 whole entry) above
# Chain of Peroxisome proliferator-activated receptor gamma/Nuclear receptor coactivator 1 (Q15788 whole entry, further chain): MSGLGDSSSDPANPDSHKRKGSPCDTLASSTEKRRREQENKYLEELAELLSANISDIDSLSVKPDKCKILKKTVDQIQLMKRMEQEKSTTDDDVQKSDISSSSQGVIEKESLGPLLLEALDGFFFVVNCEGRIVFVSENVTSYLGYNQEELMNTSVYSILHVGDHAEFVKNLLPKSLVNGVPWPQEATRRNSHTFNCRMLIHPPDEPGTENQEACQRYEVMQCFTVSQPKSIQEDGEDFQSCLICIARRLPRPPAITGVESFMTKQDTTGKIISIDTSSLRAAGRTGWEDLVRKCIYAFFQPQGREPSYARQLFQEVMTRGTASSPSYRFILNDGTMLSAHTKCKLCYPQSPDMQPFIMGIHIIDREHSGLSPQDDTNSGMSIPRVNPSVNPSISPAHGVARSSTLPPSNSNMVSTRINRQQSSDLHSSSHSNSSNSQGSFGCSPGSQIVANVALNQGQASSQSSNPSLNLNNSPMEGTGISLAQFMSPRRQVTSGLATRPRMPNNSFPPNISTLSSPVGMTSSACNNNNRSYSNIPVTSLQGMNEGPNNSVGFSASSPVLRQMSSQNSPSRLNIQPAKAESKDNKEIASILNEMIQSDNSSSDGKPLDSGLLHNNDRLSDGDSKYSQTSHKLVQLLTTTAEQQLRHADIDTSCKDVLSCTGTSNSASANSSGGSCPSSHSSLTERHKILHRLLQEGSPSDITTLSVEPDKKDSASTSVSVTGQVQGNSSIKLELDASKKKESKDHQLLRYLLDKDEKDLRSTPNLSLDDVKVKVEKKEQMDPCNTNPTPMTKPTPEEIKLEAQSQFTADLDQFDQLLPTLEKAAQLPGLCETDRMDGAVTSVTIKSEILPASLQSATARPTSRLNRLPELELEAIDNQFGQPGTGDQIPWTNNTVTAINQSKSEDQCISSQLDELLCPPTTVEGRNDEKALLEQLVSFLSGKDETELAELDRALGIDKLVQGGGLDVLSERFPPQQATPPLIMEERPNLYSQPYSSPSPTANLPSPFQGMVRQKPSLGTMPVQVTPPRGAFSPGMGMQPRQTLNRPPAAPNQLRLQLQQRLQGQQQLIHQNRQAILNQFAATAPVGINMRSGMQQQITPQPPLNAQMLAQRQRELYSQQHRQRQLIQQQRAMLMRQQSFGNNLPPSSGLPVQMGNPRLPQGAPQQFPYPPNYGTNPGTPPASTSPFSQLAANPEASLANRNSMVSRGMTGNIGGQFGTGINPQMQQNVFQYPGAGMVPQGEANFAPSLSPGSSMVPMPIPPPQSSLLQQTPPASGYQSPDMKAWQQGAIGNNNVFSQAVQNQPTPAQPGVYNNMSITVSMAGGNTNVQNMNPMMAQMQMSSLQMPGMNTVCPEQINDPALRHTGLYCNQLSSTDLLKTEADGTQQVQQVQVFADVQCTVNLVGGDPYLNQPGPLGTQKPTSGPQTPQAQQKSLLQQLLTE
# [9] = viability loss of HPDE-C7K cells – cell-based, fluorescence, HTS, primary screen (AID 431); assay type: functional; settings: Homo sapiens
# [10] = HPDE-C7 pancreatic duct cell viability loss – fluorescence, HTS (AID 430); assay type: functional, cell-based; settings: Homo sapiens
# [11] = biological target: T1, Heat shock factor protein 1 (Mus musculus, UniProt P38532); assay: decrease of HSF1-responsive luciferase luminescence – cell-based, NIH3T3, dose retest, confirmation (AID 2382); assay type: functional;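 note: NIH3T3 fibroblasts with HSF1-driven luciferase reporter stressed by proteasome inhibitor MG132; luminescence from HSF1-driven luciferase expression after 8 hours of MG132 stress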
# T1 sequence (P38532 whole entry): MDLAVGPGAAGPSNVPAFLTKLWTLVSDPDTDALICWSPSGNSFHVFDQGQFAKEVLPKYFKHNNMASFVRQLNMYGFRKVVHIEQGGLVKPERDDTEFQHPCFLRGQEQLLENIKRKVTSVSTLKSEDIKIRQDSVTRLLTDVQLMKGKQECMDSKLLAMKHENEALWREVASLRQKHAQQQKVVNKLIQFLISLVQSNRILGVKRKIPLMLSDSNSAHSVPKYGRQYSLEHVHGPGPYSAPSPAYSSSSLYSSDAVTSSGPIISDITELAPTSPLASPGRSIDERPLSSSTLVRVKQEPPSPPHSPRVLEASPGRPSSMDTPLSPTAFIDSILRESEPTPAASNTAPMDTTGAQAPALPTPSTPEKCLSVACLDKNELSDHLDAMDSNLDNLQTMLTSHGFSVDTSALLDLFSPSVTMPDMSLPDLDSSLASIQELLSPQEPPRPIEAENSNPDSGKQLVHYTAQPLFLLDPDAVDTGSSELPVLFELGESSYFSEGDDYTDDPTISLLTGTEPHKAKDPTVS
# [12] = general mammalian cell viability loss – inhibitor set, cherry-pick, set 2, cytotoxicity control for miR-122 modulator project, dose response (AID 720697); assay type: functional, cell-based
# [13] = biological target: T2, DNA repair protein RAD52 homolog (Homo sapiens, UniProt P43351); assay type: functional, biochemical
# T2 sequence (P43351 whole entry): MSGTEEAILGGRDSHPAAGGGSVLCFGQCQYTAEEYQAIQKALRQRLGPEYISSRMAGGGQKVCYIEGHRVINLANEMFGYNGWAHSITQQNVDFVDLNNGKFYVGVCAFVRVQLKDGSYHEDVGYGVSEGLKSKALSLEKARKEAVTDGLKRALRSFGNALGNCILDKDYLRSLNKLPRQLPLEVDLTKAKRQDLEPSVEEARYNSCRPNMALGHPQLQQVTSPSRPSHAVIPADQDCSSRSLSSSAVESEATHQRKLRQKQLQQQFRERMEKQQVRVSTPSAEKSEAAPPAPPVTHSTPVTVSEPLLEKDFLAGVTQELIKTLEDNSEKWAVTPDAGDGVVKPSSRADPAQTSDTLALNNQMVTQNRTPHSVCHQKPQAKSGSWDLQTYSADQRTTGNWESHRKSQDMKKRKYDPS
# [14] = A2780 cell killing – plate reader, dry powder samples, cytotoxicity control, dose response (AID 743046); assay type: functional, cell-based
# [15] = OVCAR-3 cell viability loss – plate reader, dry powder samples, PAX8 inhibitor project, dose response (AID 743044); assay type: functional, cell-based
# [16] = IGROV1 cell killing – plate reader, dry powder samples, PAX8 inhibitor project, dose response (AID 743043); assay type: functional, cell-based; settings: IGROV-1
# [17] = OVCAR8 cell viability loss – plate reader, dry powder samples, PAX8 project, dose response (AID 743197); assay type: functional, cell-based; settings: OVCAR-8
# [18] = biological target: Paired box protein Pax-8 (Homo sapiens, UniProt Q06710); assay: PAX8 transcriptional activity inhibition in RMG-I – RMG-I cells, luciferase, cherry-pick, dose response (AID 687027); assay type: functional, cell-based;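 note: luciferase reporter driven by Pax8 target thyroperoxidase promoter measured by SteadyGlo luminescence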
# Chain of Paired box protein Pax-8 (Q06710 whole entry): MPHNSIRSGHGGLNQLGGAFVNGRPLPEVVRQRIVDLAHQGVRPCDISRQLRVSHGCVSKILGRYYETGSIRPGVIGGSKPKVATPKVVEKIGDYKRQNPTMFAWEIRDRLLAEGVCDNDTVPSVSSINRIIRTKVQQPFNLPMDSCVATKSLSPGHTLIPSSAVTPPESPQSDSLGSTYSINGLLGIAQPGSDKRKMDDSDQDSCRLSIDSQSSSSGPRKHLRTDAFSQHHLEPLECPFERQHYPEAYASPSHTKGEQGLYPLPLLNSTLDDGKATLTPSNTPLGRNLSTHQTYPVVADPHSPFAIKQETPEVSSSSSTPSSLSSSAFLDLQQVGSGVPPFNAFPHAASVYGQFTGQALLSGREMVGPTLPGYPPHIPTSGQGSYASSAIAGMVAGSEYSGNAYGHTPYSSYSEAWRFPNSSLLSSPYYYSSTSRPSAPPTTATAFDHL
# [19] = Luminescence Cell-Based Dose Response HTS to Identify Activators of Luciferase Translation or Activity in H4 […] Cells. [Related pubchem assays: 1829 (Project Summary), 1814 (Primary HTS)]; assay type: functional
# [20] = tested on: H4; assay: Luminescence Cell-Based Dose Response HTS to Identify Activators of 5'UTR Stem-Loop Driven Prion Protein mRNA Translation in H4 Neuroglioblastoma Cells. [Related pubchem assays: 1829 (Project Summary), 1814 (Primary HTS)]; assay type: functional; settings: Homo sapiens
# [21] = Luminescence Cell-Based Dose Response to Identify Activators of 5'UTR Stem-Loop Driven Prion Protein mRNA Translation in H4-C Neuroglioblastoma Cells. [Related pubchem assays: 1829 (Project Summary), 1814 (Primary HTS)]; assay type: functional
# [22] = Luminescence Cell-Based Dose Confirmation to Identify Activators of 5'UTR Stem-Loop Driven Alpha-Synuclein mRNA Translation in H4 Neuroglioblastoma Cells. [Related pubchem assays: 1829 (Project Summary), 1814 (Primary HTS)]; assay type: functional
# [23] = Luminescence Cell-Based Dose Response to Identify Activators of Luciferase Translation or Activity in H4-C Neuroglioblastoma Cells. [Related pubchem assays: 1829 (Project Summary), 1814 (Primary HTS)]; assay type: functional
# [24] = Luminescence Cell-Based Dose Confirmation HTS to Identify Activators of 5'UTR Stem-Loop Driven Alpha-Synuclein mRNA Translation in H4 Neuroglioblastoma Cells. [Related pubchem assays: 1829 (Project Summary), 1814 (Primary HTS)]; assay type: functional
# [25] = biological target: T3, Protein Tat (Human immunodeficiency virus type 1 group M subtype B (isolate HXB2)(HIV-1), UniProt P04608); assay type: functional;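 note: tat binding to TAR RNA read out by fluorescence polarization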
# T3 sequence (P04608 whole entry): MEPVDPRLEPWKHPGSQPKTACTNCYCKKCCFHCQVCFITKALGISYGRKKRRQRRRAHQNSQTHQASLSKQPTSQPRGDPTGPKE
structure (smiles),measurement,setting,value
Cc1cc(C(C)(C)C)oc1C(=O)N(CC(=O)NC1CCCC1)Cc1ccc(Cl)cc1,AC50,[1],> 70 µM (inactive)
same,AC50,[2],49.5 µM (active)
same,AC50,[3],6.45 µM (active)
C[C@H]1CN([C@@H](C)CO)C(=O)c2cccc(NC(=O)NC3CCCCC3)c2O[C@H]1CN(C)Cc1ccc(C(F)(F)F)cc1,AC50,[4],31.7 µM (active)
CN1C(=O)CC[C@H]1c1cccnc1 [COTININE],IC50,[5],> 33.3 µM (inactive)
CCOC(=O)c1c(NC(=O)Cc2cccs2)sc(C(=O)NC2CCCC2)c1C,EC50,[6],> 79.4 µM (not active)
same,EC50,[7],> 79.4 µM (not active)
same,EC50,[8],> 79.4 µM (not active)
Cc1ccc(-n2ncc3c(NCc4ccc5c(c4)OCO5)ncnc32)c(C)c1,EC50,[9],> 20 µM (not active)
same,EC50,[10],> 20 µM (not active)
same,EC50,[11],> 195 µM (not active)
CO[C@@H]1CN(C)C(=O)c2ccc(NC(C)=O)cc2OC[C@@H](C)N(C(=O)c2ccccc2F)C[C@H]1C,AC50,[12],0.147 µM (active)
CCCCOc1cc(C(=O)OCCN(CC)CC)ccc1N [BENOXINATE HYDROCHLORIDE],AC50,[13],33.9 µM (active)
same,IC50,[5],15.5 µM (inactive)
O=C(C[C@@H]1CC[C@@H]2[C@H](COC[C@@H](O)CN2C(=O)Nc2ccc(Cl)c(Cl)c2)O1)NCc1ccc(Cl)cc1,AC50,[14],60 µM (active)
same,AC50,[15],33.5 µM (active)
same,AC50,[16],33.9 µM (active)
same,AC50,[17],53.3 µM (active)
same,AC50,[18],8.87 µM (active)
Cc1cc(C)c2c(n1)nn1c(N3CCN(c4ccccc4)CC3)cc(C)nc21,EC50,[9],> 20 µM (not active)
same,EC50,[10],> 20 µM (not active)
COc1ccc(/N=C/c2sc(O)c3ccccc23)cc1,EC50,[19],< 0.1 µM (active)
same,EC50,[20],< 0.1 µM (active)
same,EC50,[21],0.315 µM (active)
same,EC50,[22],0.228 µM (active)
same,EC50,[23],0.433 µM (active)
same,EC50,[24],< 0.1 µM (active)
COc1ccc(C(=O)N/N=C/c2cccnc2)cc1,IC50,[25],> 100 µM (active)
Cc1cc(O)cc(O)c1C(=O)Cc1cnn(-c2ccccc2)c1,IC50,[25],> 100 µM (inconclusive)
C[C@@H]1CCCCO[C@H](CN(C)Cc2ccc(C(F)(F)F)cc2)[C@H](C)CN([C@@H](C)CO)C(=O)c2cc(NC(=O)Nc3ccc4c(c3)OCO4)ccc2O1,AC50,[14],42.2 µM (active)
same,AC50,[15],48.7 µM (active)
same,AC50,[16],40.9 µM (active)
same,AC50,[17],36.8 µM (active)
same,AC50,[18],3.34 µM (active)
